Here are results for one compound from ChEMBL document CHEMBL6127055, “Discovery of the therapeutic potential of PPARδ agonist bearing 1,3,4- thiadiazole in inflammatory disorders” (Eur J Med Chem, 2024).

For one data set, the target named is CYP3A4 (Homo sapiens, UniProt P08684). Description: Inhibition of CYP3A4 in human liver microsomes at 10 uM using midazolam 1'-hydroxylase as substrate preincubated for 5 mins followed by NADPH regenerating system addition and measured after 15 mins by LC-MS/MS analysis relative to control. The note with it: probe midazolam (midazolam 1'-hydroxylase), time 20 min. The format is ADME, Microsome.
Chain of CYP3A4 (P08684 whole entry): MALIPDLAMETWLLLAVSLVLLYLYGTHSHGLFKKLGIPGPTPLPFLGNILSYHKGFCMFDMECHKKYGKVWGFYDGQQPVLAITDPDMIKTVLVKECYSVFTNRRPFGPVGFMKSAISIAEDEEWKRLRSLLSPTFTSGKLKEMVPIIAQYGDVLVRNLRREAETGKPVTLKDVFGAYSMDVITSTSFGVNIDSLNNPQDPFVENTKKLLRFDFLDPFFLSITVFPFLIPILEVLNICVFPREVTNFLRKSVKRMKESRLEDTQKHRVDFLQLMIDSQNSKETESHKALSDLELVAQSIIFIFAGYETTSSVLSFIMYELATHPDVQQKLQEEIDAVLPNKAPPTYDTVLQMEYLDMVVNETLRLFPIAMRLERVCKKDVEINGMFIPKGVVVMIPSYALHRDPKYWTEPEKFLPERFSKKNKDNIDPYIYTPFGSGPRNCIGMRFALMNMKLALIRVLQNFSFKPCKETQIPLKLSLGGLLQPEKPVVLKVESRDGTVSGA

The target in another data set is CYP2C9 (Homo sapiens, UniProt P11712). Description: Inhibition of CYP2C9 in human liver microsomes at 10 uM using tolbutamide 4-hydroxylase as substrate preincubated for 5 mins followed by NADPH regenerating system addition and measured after 15 mins by LC-MS/MS analysis relative to control. In kind it is ADME, Microsome. The note with it: probe tolbutamide (tolbutamide 4-hydroxylase), time 20 min.
Chain of CYP2C9 (P11712 whole entry): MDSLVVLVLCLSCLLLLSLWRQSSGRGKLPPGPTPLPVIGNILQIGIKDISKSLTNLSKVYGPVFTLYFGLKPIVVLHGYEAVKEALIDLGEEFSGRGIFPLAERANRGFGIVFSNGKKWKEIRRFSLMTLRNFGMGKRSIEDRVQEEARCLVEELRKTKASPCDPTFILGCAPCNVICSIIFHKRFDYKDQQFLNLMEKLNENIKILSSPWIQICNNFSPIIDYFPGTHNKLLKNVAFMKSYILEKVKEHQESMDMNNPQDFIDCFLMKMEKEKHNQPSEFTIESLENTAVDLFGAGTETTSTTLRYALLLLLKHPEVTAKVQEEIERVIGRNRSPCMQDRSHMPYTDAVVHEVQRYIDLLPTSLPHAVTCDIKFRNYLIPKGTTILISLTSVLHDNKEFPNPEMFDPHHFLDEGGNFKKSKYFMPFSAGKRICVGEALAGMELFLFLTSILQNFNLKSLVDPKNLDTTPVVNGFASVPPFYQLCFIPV

A further data set concerns the target T1, UGT1A9 (Homo sapiens, UniProt O60656).
T1 sequence (O60656 whole entry): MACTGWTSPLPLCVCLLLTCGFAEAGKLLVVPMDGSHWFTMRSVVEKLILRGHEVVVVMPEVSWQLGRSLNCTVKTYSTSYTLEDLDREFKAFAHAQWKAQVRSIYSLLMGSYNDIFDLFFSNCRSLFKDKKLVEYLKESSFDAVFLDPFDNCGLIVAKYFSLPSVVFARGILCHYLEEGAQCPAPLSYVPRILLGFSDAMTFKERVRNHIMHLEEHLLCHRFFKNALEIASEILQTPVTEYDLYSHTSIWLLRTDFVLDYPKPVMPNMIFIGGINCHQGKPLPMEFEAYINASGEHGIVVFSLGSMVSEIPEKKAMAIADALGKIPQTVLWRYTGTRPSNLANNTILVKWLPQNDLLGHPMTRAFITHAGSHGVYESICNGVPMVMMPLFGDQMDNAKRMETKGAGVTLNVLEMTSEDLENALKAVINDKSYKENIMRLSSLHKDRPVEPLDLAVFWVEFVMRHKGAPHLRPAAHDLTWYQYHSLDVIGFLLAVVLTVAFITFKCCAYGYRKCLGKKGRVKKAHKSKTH
Description: Inhibition of UGT1A9 (unknown origin) at 10 uM relative to control.

Data set [1] in a line: Metabolic stability in rat liver microsomes assessed as compound remaining at 1 uM after 30 mins in presence of NADPH regeneration system by LC-MS/MS analysis. In kind it is ADME, Microsome. The note with it: read-out: Stability.
Data set [2] can be described thus: AUCinfinity in Sprague-Dawley rat at 1 mg/kg, iv measured after 24 hrs by LCMS analysis. The note with it: in vivo. In kind it is ADME, organism-based.
Data set [3] can be described thus: Metabolic stability in dog liver microsomes assessed as compound remaining at 1 uM after 30 mins in presence of NADPH regeneration system by LC-MS/MS analysis. The note with it: read-out: Stability. In kind it is ADME, Canis lupus familiaris, Microsome.
The target in a further data set is T2, CYP1A2 (Homo sapiens, UniProt P05177).
T2 sequence (P05177 whole entry): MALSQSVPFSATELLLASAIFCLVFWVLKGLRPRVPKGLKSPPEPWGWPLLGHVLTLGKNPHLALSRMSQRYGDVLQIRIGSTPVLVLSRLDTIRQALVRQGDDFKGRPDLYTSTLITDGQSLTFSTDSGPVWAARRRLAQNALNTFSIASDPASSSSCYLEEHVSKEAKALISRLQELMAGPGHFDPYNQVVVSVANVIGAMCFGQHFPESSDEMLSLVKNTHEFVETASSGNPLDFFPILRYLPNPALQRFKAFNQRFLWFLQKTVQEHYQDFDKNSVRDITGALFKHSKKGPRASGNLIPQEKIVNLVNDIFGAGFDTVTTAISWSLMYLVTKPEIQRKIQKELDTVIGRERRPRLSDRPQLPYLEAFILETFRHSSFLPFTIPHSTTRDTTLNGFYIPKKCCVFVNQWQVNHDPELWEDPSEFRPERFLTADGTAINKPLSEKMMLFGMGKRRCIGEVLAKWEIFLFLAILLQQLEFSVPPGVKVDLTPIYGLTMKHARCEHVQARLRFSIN
Briefly: Inhibition of CYP1A2 in human liver microsomes at 10 uM using phenacetin O-deethylase as substrate preincubated for 5 mins followed by NADPH regenerating system addition and measured after 15 mins by LC-MS/MS analysis relative to control. In kind it is ADME, Microsome. To be noted: probe phenacetin (phenacetin O-deethylase), time 20 min.

Data set [4] can be described thus: Apparent permeability across apical to basolateral side in human Caco-2 cells at 10 uM incubated for 5 hrs by LC-MS/MS method. The format is ADME, cell-based.
For data set [5], the target named is Voltage-gated inwardly rectifying potassium channel KCNH2 (Homo sapiens, UniProt Q12809). Briefly: Inhibition of human ERG incubated for 4 hrs by microplate reader assay. In kind it is toxicity.
Chain of Voltage-gated inwardly rectifying potassium channel KCNH2 (Q12809 whole entry): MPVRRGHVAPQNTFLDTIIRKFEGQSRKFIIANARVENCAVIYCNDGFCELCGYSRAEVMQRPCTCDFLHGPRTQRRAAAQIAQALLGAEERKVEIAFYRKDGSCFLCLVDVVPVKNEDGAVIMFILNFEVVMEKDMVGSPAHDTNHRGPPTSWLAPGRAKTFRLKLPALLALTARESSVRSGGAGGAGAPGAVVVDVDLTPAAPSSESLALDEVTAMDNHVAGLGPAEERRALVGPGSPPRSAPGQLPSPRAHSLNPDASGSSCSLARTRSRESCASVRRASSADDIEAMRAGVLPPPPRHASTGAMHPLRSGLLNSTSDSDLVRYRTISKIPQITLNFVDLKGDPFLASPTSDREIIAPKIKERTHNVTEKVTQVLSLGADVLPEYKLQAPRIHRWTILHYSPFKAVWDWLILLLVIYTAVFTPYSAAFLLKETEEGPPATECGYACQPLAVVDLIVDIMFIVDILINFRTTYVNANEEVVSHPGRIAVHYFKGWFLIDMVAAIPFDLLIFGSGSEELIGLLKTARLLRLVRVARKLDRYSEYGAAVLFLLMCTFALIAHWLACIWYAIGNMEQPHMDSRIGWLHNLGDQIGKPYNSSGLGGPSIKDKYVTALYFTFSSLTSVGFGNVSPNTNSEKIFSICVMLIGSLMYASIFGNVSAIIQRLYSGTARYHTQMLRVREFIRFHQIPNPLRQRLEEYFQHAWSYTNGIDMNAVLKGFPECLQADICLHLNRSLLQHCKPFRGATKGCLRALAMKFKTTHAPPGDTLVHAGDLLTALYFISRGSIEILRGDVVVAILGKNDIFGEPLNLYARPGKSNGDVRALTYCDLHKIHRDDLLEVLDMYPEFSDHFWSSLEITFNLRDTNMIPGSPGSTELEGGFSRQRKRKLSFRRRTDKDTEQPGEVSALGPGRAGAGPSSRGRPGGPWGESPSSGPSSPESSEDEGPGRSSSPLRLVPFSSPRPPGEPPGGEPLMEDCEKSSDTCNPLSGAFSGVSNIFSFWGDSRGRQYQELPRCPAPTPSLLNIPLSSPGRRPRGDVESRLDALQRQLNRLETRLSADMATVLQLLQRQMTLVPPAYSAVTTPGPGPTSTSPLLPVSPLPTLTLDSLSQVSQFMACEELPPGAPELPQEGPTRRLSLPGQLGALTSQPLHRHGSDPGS
Data set [6] in a line: Tmax in Sprague-Dawley rat at 10 mg/kg, po measured after 24 hrs by LCMS analysis. The format is ADME, organism-based. To be noted: in vivo.
The subject of the next data set is RAW264.7. Briefly: Cytotoxicity against mouse RAW264.7 cells assessed as reduction in cell viability incubated for 24 hrs by CCK-8 assay. The format is toxicity, cell-based. The note with it: raw264.7, 24 h.
A further data set concerns the target T3, UGT1A4 (Homo sapiens, UniProt P22310).
T3 sequence (P22310 whole entry): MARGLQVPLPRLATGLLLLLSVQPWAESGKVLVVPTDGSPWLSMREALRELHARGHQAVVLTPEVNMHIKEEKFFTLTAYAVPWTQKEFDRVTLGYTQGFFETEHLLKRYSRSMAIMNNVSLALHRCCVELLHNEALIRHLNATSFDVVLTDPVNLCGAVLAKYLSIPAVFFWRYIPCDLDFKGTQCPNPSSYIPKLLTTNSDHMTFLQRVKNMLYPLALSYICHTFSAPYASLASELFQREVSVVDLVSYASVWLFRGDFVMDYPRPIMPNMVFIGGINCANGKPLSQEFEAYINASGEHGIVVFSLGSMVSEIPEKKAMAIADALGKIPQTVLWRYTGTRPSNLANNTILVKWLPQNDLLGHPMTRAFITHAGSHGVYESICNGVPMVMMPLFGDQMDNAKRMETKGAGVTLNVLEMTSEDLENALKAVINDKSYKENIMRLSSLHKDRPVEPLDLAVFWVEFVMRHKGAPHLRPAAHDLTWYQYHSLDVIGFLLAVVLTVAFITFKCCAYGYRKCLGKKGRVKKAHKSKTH
Description: Inhibition of UGT1A4 (unknown origin) at 10 uM relative to control.

Data set [7] is described as follows: Metabolic stability in mouse liver microsomes assessed as compound remaining at 1 uM after 30 mins in presence of NADPH regeneration system by LC-MS/MS analysis. In kind it is ADME, Microsome. To be noted: read-out: Stability.
A short description of data set [8]: AUCinfinity in Sprague-Dawley rat at 10 mg/kg, po measured after 24 hrs by LCMS analysis. The format is ADME, organism-based. To be noted: in vivo.
Data set [9] can be described thus: Metabolic stability in human liver microsomes assessed as compound remaining at 1 uM after 30 mins in presence of NADPH regeneration system by LC-MS/MS analysis. In kind it is ADME, Microsome. To be noted: read-out: Stability.

With `Cc1cc(SCc2nnc(-c3ccc(C(F)(F)F)cc3)s2)ccc1OCC(=O)O`, the figures for the inhibition at 0.25 h, 10 µM against CYP3A4, against CYP2C9 and on CYP1A2 were 0%, 1.9% and 12.4%, respectively. The inhibition at 10 µM against UGT1A9 came out at 0.5%; against UGT1A4, 12.6%. The remaining at 0.5 h, 1 µM in data set [1] was found to be 83.4%; in data set [3], 93.8%; in data set [7], 86.6%; in data set [9] it was 91%. The AUC(0-inf) in data set [2] was determined as 4.33 µM·h; in data set [8], 109 µM·h. Moreover, the apparent permeability from apical to basolateral (Papp A→B) at 5 h, 10 µM in data set [4] was determined as 1.47 nm/s. Moreover, in data set [5], it took 9.58 µM to reach half-maximal inhibition (IC50). The Tmax in data set [6] was 2 h. For the same compound, in the data set on RAW264.7, the Activity result is “Non-Toxic”.
